# PMC8522775, “Population Pharmacokinetics of Rezafungin in Patients with Fungal Infections” (Antimicrobial Agents and Chemotherapy, 2021)
# Like-named read-outs stand apart in the source and are kept apart here. Numbered stars: 1 amine (or outer) side, 2 acyl side, 3 side chain; on linkers, the order of the positions; unused ones are H or OH. Bridge positions count the residues as written; N and C are the ends. Square brackets hold non-standard residues; d marks the D form. Peptide text beside a SMILES is read from it. * marks the point of attachment. Orn(4R-OH,5R-OCH2CH2NMe3+) = C[N+](C)(C)CCO[C@@H](N[*:3])[C@H](O)C[C@H](N[*:1])C(=O)[*:2]; pTerphenylCO(4''-OnC5H11) = CCCCCOc1ccc(-c2ccc(-c3ccc(C(=O)*)cc3)cc2)cc1; hTyr(3S-OH,4S-OH) = N[C@H](C(=O)O)[C@H](O)[C@@H](O)c1ccc(O)cc1; Pro(3S-OH,4S-Me) = C[C@H]1CN[C@H](C(=O)O)[C@H]1O; Hyp = O=C(O)[C@@H]1C[C@@H](O)CN1
# What was measured:
# [1] = Post hoc rezafungin exposure and PK parameter estimates for patients of the STRIVE trial; assay type: in vivo, human; settings: n = 68, plasma; for AUC0–168 / Cmax / Cmin: after first dose and prior to the second dose; for AUC0–168: from individual post hoc parameters; for Cmax: highest predicted concentration; for Cmin: lowest predicted concentration; for clearance / Vd: human, iv; for clearance: individual post hoc estimates from final model; for Vd: volume of distribution at steady state, individual post hoc estimates, read-out: Vss
# Method: (§1) The phase 2 study (NCT02734862, also known as the STRIVE trial) was a multicenter, randomized, double-blind study designed to assess the safety and efficacy of rezafungin, compared to that of caspofungin followed by optional oral fluconazole step-down, in the treatment of patients with candidemia and/or invasive candidiasis. Treatment groups included two dose regimens of rezafungin IV once weekly (400 mg IV or 400 mg IV on week 1 followed by 200 mg on subsequent weeks) or caspofungin IV once daily. Additional doses after day 14 were allowed based on criteria defined in the study protocol. Blood samples for determination of rezafungin plasma concentrations were obtained within 10 min before the end of infusion and either at 4 and 8 h on day 1 (as specified in the original protocol) or from 15 min to 1 h after the end of infusion and 2 to 12 h after the end of infusion on day 1 (as modified by protocol amendment, designed to better inform the population PK model). Additional samples were obtained with random clinical blood draws on day 2 and day 4, as well as prior to the dose on day 8 and day 15 (or day 14 if no day 15 dose was administered).
# All blood samples were assayed for plasma rezafungin concentration using a liquid chromatography coupled to tandem mass spectrometry (LC/MS/MS) method that has been described previously ([11], [12]). In brief, the calibration range for the assay was 10.0 ng/ml to 10,000 ng/ml, and interassay accuracy and precision were excellent (accuracy ranged from 0.3 to 4.3%, and precision ranged from 2.7 to 5.0%). The same assay was used for all four studies.
# Patient-specific estimates of rezafungin exposure (AUC from zero to tau [AUC0−τ], maximum concentration of drug [Cmax], and minimum concentration of drug [Cmin]) were derived using individual post hoc PK parameter estimates obtained from the final model. The PK parameters and the mrgsolve package in R ([22]) were then used to simulate predicted plasma rezafungin concentration-time data for each subject for the duration of time between the first and second doses. Cmax and Cmin were defined as the highest and lowest predicted concentrations over that first dosing interval, respectively, while AUC0-τ was calculated via numerical integration of the concentration-time profile. Summary statistics for the rezafungin exposures and key PK parameters (i.e., CL and volume of distribution at steady state [Vss]) were calculated for the patients from the STRIVE trial.
# [2] = Population PK model of rezafungin in plasma, pooled phase 1 and phase 2 data; assay type: in vivo, human
# Description: Data were pooled from three phase 1 studies (NCT02516904, NCT02551549, and CD101.IV.1.06) and one phase 2 study (NCT02734862). The protocols and informed consent were reviewed and approved by an appropriate institutional review board before subject enrollment. The studies were designed and monitored in compliance with the ethical principles of good clinical practice and in accordance with the Declaration of Helsinki.
# The first phase 1 study (NCT2516904) was a single ascending dose (SAD) study in which subjects received a single rezafungin dose of 50, 100, 200, or 400 mg or matching placebo administered as a 60-min IV infusion. A total of 32 subjects were enrolled and randomized evenly to each of the four dosing cohorts (6 active and 2 placebo in each cohort). Blood samples for determination of rezafungin plasma concentrations were obtained prior to the dose and at 0.25, 0.5, 1, 1.5, 2, 4, 6, 8, 12, 24, 48, and 120 h after the start of infusion and on days 7, 14 (±1 day), and 21 (±1 day). The second phase 1 study (NCT02551549) was a multiple ascending dose (MAD) study. A total of 24 subjects were enrolled and randomized evenly to one of three cohorts. In cohorts 1 and 2, subjects received 100 or 200 mg of rezafungin (or matching placebo in a 3:1 ratio in each cohort), respectively, as 60-min IV infusions on days 1 and 8. In cohort 3, subjects received 400 mg (or matching placebo in a 3:1 ratio), respectively, as 60-min IV infusions on days 1, 8, and 15. Blood samples were collected predose and at 0.5, 1, 1.5, 2, 4, 6, 8, 12, 24, 48, and 120 h after the start of each infusion and on days 7, 14 (±1 day), 21 (±1 day), and 35 (±1 day, cohort 3 only). The third phase 1 study (CD101.IV.1.06) was designed to assess the impact of single, ascending doses of rezafungin on QTcF interval in healthy subjects. Subjects were randomized to receive either rezafungin (600 or 1,400 mg IV at a rate of 400 mg/h, n = 12 per dose group), moxifloxacin (400 mg IV, n = 24), or placebo. Only data from subjects randomized to rezafungin were included in the population PK analysis data set. Blood samples for determination of rezafungin plasma concentrations were obtained prior to the dose and at 1.5, 2.5, 3.5, 5, 6, 8, 12, 24, 48, 96, and 168 h after the start of the infusion.
# as §1
# All blood samples were assayed for plasma rezafungin concentration using a liquid chromatography coupled to tandem mass spectrometry (LC/MS/MS) method that has been described previously ([11], [12]). In brief, the calibration range for the assay was 10.0 ng/ml to 10,000 ng/ml, and interassay accuracy and precision were excellent (accuracy ranged from 0.3 to 4.3%, and precision ranged from 2.7 to 5.0%). The same assay was used for all four studies. […]
# [3] = with normal serum albumin, cited from earlier work
# Description: Consistent with the previous population PK model, which had relationships between body weight and all PK parameters ([12]), body size in the form of BSA was predictive of the variability in Vc, Vp1, and Vp2. However, body size was not a significant predictor of the variability in rezafungin CL in this population. One possible explanation for the lack of a body size relationship for CL is the fact that sex is predictive of the IIV in CL but none of the vo ...
# [4] = STRIVE patients, median (range)
# [5] = final population PK model, covariate effect: (BSA/1.83)^power
compound,measurement,setting,value
"CCCCCOc1ccc(-c2ccc(-c3ccc(C(=O)N[C@H]4C[C@@H](O)[C@@H](OCC[N+](C)(C)C)NC(=O)[C@@H]5[C@@H](O)[C@@H](C)CN5C(=O)[C@H]([C@@H](C)O)NC(=O)[C@H]([C@H](O)[C@@H](O)c5ccc(O)cc5)NC(=O)[C@@H]5C[C@@H](O)CN5C(=O)[C@H]([C@@H](C)O)NC4=O)cc3)cc2)cc1 [rezafungin] ({pTerphenylCO(4''-OnC5H11)}-[Orn(4R-OH,5R-OCH2CH2NMe3+)]T[Hyp][hTyr(3S-OH,4S-OH)]T[Pro(3S-OH,4S-Me)]; lactam 1-C)",AUC0–168,[1]; [4],"673 (372–1,210) mg·h/liter"
same,Cmax,"[1]; STRIVE patients, mean (SD), SD",16.4 (4.38) mg/liter
same,Cmax,[1]; [4],16.4 (7.10–26.0) mg/liter
same,Cmin,"[1]; STRIVE patients, mean (SD), SD",2.07 (0.659) mg/liter
same,Cmin,[1]; [4],1.90 (1.04–3.83) mg/liter
same,clearance,"[1]; STRIVE patients, mean (SD), SD",6.08 mL/min
same,clearance,[1]; [4],5.75 mL/min
same,Vd,"[1]; STRIVE patients, mean (SD), SD",61 L
same,Vd,[1]; [4],52.7 L
same,AUC0–168,"[1]; patients with candidemia and/or invasive candidiasis, STRIVE trial, 400 mg IV week 1, mean (SD), SD",709 (184) mg·h/liter
same,"Vc, proportional change in infected patients","[2]; final population PK model, covariate effect of infection status on Vc",0.478
same,"Vp2, proportional change in infected patients","[2]; final population PK model, covariate effect of infection status on Vp2",1.69
same,Vp1-BSA power,[2]; [5],1.14
same,Vp2-BSA power,[2]; [5],2.47
same,Vp1-albumin power,"[2]; final population PK model, covariate effect: (albumin/4.2)^power",−0.829
same,Vc-BSA slope,"[2]; final population PK model, covariate effect: Vc + slope x (BSA - 1.83)",7.54
same,"CLd1, population mean final estimate","[2]; final population PK model, distributional clearance to peripheral compartment 1",18.2 L/h
same,"CLd2, population mean final estimate","[2]; final population PK model, distributional clearance, peripheral compartment 2",0.541 L/h
same,"CLd3, population mean final estimate","[2]; final population PK model, distributional clearance, peripheral compartment 3",0.0743 L/h
same,"Vp1, population mean final estimate","[2]; final population PK model, volume of distribution for peripheral compartment 1, albumin 4.2, BSA 1.83",14.6 L
same,"Vp2, population mean final estimate","[2]; final population PK model, volume of distribution for peripheral compartment 2, BSA 1.83, not infected",6.69 L
same,"Vc, population mean final estimate","[2]; final population PK model, volume of distribution for the central compartment, BSA 1.83, not infected",11.1 L
same,"Vp3, population mean final estimate","[2]; final population PK model, volume of peripheral compartment 3",13.6 L
same,clearance,"[2]; human, final linear four-compartment population PK model, zero-order IV input, pooled healthy volunteers (phase 1) and infected patients (phase 2), 135 subjects, 50 to 1,400 mg IV, plasma LC/MS/MS, NONMEM FOCE-I, albumin 4.2, read-out: CL, population mean final estimate (converted)",4.23 mL/min
same,protein binding,[3]; humans,97.4%
same,protein binding,[3]; rats,99.2%
